Data: patent publication US11135187B2, “Compositions and methods for treating diabetic retinopathy” (Augusta University Research Institute, Inc., priority 2017, dated 2021)

Key:
[1] = blood glucose levels in diabetic mice; type: in vivo; conditions: diabetic mice + Ang II; vs. 483±122 without treatment; not affected
Method: (§1) One week after mice developed diabetes, diabetic and control mice were assigned to the following groups: Ang II (intravitreal injection with 5 μg/1 μL of Ang II); diabetes+Ang II; diabetes+Ang II+11,12-EET (15 μg/kg/day, s.c.; Alzet); diabetes+Ang II+MS-PPOH (CAS No. 206052-02-0-(N-methylsulfonyl-6-(2-propargyloxyphenyl)hexanamide, a selective EETs blocker; 20 mg/kg/day, i.p); and control. 11,12-EET was used because it potentiates intravitreal Ang II-induced retinal damage (FIGS. 4A-4C); also, MS-PPOH was used in a previous study (Huang, H., Exp Biol Med (Maywood), 231:1744-1752 (2006)).

albumin [2] = assay: intravitreal hVEGF-induced retinal albumin leakage; type: in vivo; conditions: 11,12-EET 15 μg/kg/day s.c. one week; sEH KO vs sEH (+/+) mice
Method: sEH (−/−) and sEH (+/+) mice were treated with 11, 12-EET (15 μg/kg/day, s.c.; Alzet) or a vehicle for one week, then injected with hVEGF.

albumin [3] = assay: intravitreal Ang II-induced retinal albumin leakage in diabetic mice; type: in vivo; conditions: for intravitreal Ang II-induced retinal albumin leakage in diabetic mice: 11,12-EET 15 μg/kg/day s.c., MS-PPOH 20 mg/kg/day i.p.
Method: as §1

albumin [4] = assay: intravitreal Ang II-induced retinal albumin leakage; type: in vivo, mice; conditions: for intravitreal Ang II-induced retinal albumin leakage: EET 15 μg/kg/day s.c., Ang II intravitreal on day 3, leakage significant only with 11,12-EET
Method: B6 Mice were injected mice with Ang II (1 or 5 μg per eye) or vehicle assayed for albumin leakage. The expression of albumin was used as the index of leakage assay. Mice were treated with 11, 12-EET (15 μg/kg/day, s.c.; Alzet: Cayman), 14,15-EET (15 μg/kg/day, s.c.; Alzet; Cayman), or vehicle. 11,12-EET and 14,15-EET were used because they are the major products of cytochrome P450 (CYP) epoxygenases. On day 3 after treatment, mice were intravitreally injected with Ang II (5 μg/μl).

GLUT-1 = GLUT-1 expression in HRECs under HG and hypoxia; type: cell-based, human; conditions: HG (25 mM D-Glucose) + CO (CoCl2 hypoxia)
Method: (§2) The expression of albumin, ICAM-1, IL-6, GADPH, GLUT-1, and sEH was analyzed by homogenization of tissues or cells. Samples from mice in different treatments as well as human retinal endothelial cells (HRECs) were separated by electrophoresis for 3 h. The proteins were transferred to an enhanced chemiluminescence (ECL) membrane in a transfer buffer. The membranes were blocked for 90 min with 5% nonfat dry milk in Tris-buffered saline. The membranes were incubated with antibody against albumin (1:5000; Bethyl), ICAM-1 (1:2000; Cell Signaling), IL-6 (1:2000; Santa Cruz), GADPH (1:2000; abeam), GLUT-1 (1:10,000; abeam), or sEH (1:500; Santa. Cruz). The membranes were incubated with secondary antibody for albumin, ICAM-1, IL-6, GADPH, GLUT-1, or sEH. Chemiluminescent detection using ECL reagent from Millipore Corporation was done on X-ray film. In addition, quantification of the expression levels of these proteins was analyzed with NIH image J software.
Methods and Materials HRECs were subjected to L-glucose (osmotic control), L-Glu+hypoxia (CoCl2, 5 μM; CO), HG (25 mM of D-Glucose), or HG+CO.

[5] = EUCLID trial, 530 participants, after two years of treatment; cited from earlier work
[6] = DIRECT trial, oral treatment; cited from earlier work
sEH = assay: Western blot of sEH protein in tissues of Ang II-infused mice; type: in vivo
Method: as §2, with “Eight-week-old male B6 mice were treated for 4 weeks with Ang II (3 mg/kg/day, s.c.; […]; Cayman), Ang II (Sigma), or vehicle. […]. The expression” for “The expression”
Male mice were treated for 4 weeks with Ang II (3 mg/kg/day, s.c.; Alzet)+telmisartan, a selective AT1 antagonist (2.5 mg/kg/day in drinking water; Cayman), Ang II, or vehicle.
as §2, with “abcam),” for “abeam),”, “Santa” for “Santa.”

[7] = blood pressure in Ang II-induced hypertension; type: in vivo, mice; conditions: Ang II 3 mg/kg/day s.c., 4 weeks, vs vehicle
albumin [8] = assay: Western blot of total retinal albumin in Ang II-infused mice (retinal permeability); type: in vivo; conditions: Ang II 3 mg/kg/day s.c., 4 weeks, vs vehicle
Method: The expression of albumin, ICAM-1 IL-6, GADPH, GLUT-1, and sEH was analyzed by homogenization of tissues or cells. Samples from mice in different treatments as well as human retinal endothelial cells (HRECs) were separated by electrophoresis for 3 h. The proteins were transferred to an enhanced chemiluminescence (ECL) membrane in a transfer buffer. The membranes were blocked for 90 min with 5% nonfat dry milk in Tris-buffered saline. The membranes were incubated with antibody against albumin (1:5000; Bethyl), ICAM-1 (1:2000; Cell Signaling), IL-6 (1:2000; Santa Cruz), GADPH (1:2000; abcam), GLUT-1 (1:10,000; abcam), or sEH (1:500; Santa Cruz). The membranes were incubated with secondary antibody for albumin, ICAM-1, IL-6, GADPH, GLUT-1, or sEH. Chemiluminescent detection using ECL reagent from Millipore Corporation was done on X-ray film. In addition, quantification of the expression levels of these proteins was analyzed with NIH image J software.

## CCCCC/C=C\C[C@H]1O[C@H]1C/C=C\C/C=C\CCCC(=O)O [11,12-EET]
[1]
  blood glucose levels: 528 ± 53 mg/dL
Albumin [2]
  effects of 11,12-EET on intravitreal hVEGF-induced retinal vascular leakage: potentiated
Albumin [3]
  intravitreal Ang II-induced retinal albumin leakage in diabetic mice: increased
Albumin [4]
  intravitreal Ang II-induced retinal albumin leakage: promoted
Albumin [4]; comparison of the two EETs
  potency in potentiating intravitreal Ang II-induced retinal damage: more potent than 14,15-EET
GLUT-1
  GLUT-1 expression in HRECs: promoted GLUT-1 expression

## CCCCCC1OC1C/C=C\C/C=C\C/C=C\CCCC(=O)O (stereo not shown) [14,15-EET]
Albumin [4]
  intravitreal Ang II-induced retinal albumin leakage: promoted
GLUT-1
  GLUT-1 expression in HRECs: promoted GLUT-1 expression

## NCCCC[C@H](N[C@@H](CCc1ccccc1)C(=O)O)C(=O)N1CCC[C@H]1C(=O)O [Lisinopril]
[5]
  reduction of progression of DR: 50%
  reduction of progression to proliferative DR: 80%

## C#CCOc1ccccc1CCCCCC(=O)NS(C)(=O)=O [MS-PPOH, N-methylsulfonyl-6-(2-propargyloxyphenyl)hexanamide]
[1]
  blood glucose levels: 502 ± 57 mg/dL
Albumin [3]
  intravitreal Ang II-induced retinal albumin leakage in diabetic mice: decreased

## CCOc1nc2cccc(C(=O)O)c2n1Cc1ccc(-c2ccccc2-c2nnn[nH]2)cc1 [candesartan]
[6]
  incidence of diabetic retinopathy: decreased the incidence of diabetic retinopathy
  progression of established diabetic retinopathy: did not reduce the progression of established diabetic retinopathy

## CCCc1nc2c(C)cc(-c3nc4ccccc4n3C)cc2n1Cc1ccc(-c2ccccc2C(=O)O)cc1 [telmisartan]
sEH; heart, Ang II + telmisartan 2.5 mg/kg/day in drinking water, 4 weeks
  Ang II-induced sEH expression in the heart: attenuated
sEH; kidney, Ang II + telmisartan 2.5 mg/kg/day in drinking water, 4 weeks
  Ang II-induced sEH expression in the kidney: attenuated
sEH; retina, Ang II + telmisartan 2.5 mg/kg/day in drinking water, 4 weeks
  Ang II-induced retinal expression of sEH: reversed

## Ang II: angiotensin II, produced from Ang I by angiotensin-converting enzyme (DRVYIHPF; Angiotensin-2; UniProt P01019 25-32, looked up)
[7]
  blood pressure: became hypertensive
sEH; retina, Ang II 3 mg/kg/day s.c., 4 weeks
  retinal sEH protein levels, elevation vs vehicle group: 2 fold
sEH; retina, Ang II infusion 3 mg/kg/day s.c., 4 weeks (Example 4)
  retinal expression of sEH: increased
Albumin [3]; intravitreal Ang II 5 μg/1 μL, diabetic mice
  albumin leakage (blood retinal barrier disruption) in diabetes: significant increases in albumin leakage
Albumin [8]
  total retinal albumin: did not affect total retinal albumin
